Experimental data published in PMC6934657, “Transdermal delivery of nobiletin using ionic liquids” (Scientific Reports, 2019).
In brackets after ≈: the same amount, converted by molar mass. Each block holds one molecule with its values, some of them ahead of it.

Tests used:
[1] = cited from earlier work
[2] = parameters: method as in doi:10.2525/ecb.56.161, PMID 18951932; settings: cited from earlier work
[3] = cited from earlier work; remark: listed apart in the source
[4] = Measurement of NOB solubility in CAGE; assay type: physicochemical; settings: shaken at 37 °C for 48 h, HPLC
Protocol: An excess amount of NOB was added to CAGE in test tubes and the tubes were shaken at 37 °C for 48 h. The supernatants were then collected and filtered through a filter with a pore size of 0.20 µm (Toyo Roshi Co. Ltd., Tokyo, Japan), and the concentration of NOB was determined by high-pressure liquid chromatography (HPLC) (Shimadzu LC-2010C, Kyoto, Japan) with the following conditions: mobile phase 0.1% formic acid in water (solvent A) and acetonitrile (solvent B) (0–20 min, 52.5–75% solvent A); flow rate 1 mL/min; injection volume 5 µL; column Develosil ODS-HG-5, 4.6 mm × 150 mm, 5 µm particle size; column temperature 40 °C; UV detector wavelength 285 nm.

[5] = In vitro skin penetration test using Franz diffusion cell; assay type: in vitro ADME, Yucatan micropig; settings: 24 h
Protocol: Porcine skin stored at −70 °C was thawed at 37 °C for 30 min, and then cut into a circle 3.5 cm in diameter. The adipose tissue of this skin was scraped off with a razor. The skin was sandwiched between the acceptor side of a Franz diffusion cell (FDC) (PermeGear, Hellertown, PA, USA) filled with phosphate buffered saline (PBS) solution, and the donor of the FDC, and both sides of the FDC were fixed with a clip. The skin was stretched without wrinkles and the acceptor was degassed. Then, 300 μL of 1, 2, 5, 7, and 10 mg/mL NOB/PBS or NOB/CAGE were added to the donor and incubated for 24 h at 37 °C. After incubation, samples in the donor were removed and the skin was washed up to 5 times with PBS solution. The skin was removed from the FDC and punched out according to the administration area. A tape stripping method was used with ten tapes to obtain parts of the stratum corneum (SC). The remaining epidermis was scraped with a razor and separated from the dermis. NOB was eluted from these tissue samples using methanol: PBS = 1:1 for 24 h. The solutions were centrifuged at 3,000 rpm at 25 °C for 3 min and the supernatant was passed through a membrane filter (pore size: 0.20 µm, Toyo Roshi Co. Ltd.). The amount of NOB in the SC, epidermis, dermis, and acceptor was quantitatively determined by HPLC as described in Section 2.1.2. […] To compare the permeation ability of CAGE with other skin permeation reagents, additional 24-h transdermal tests were performed using 1 mg/mL NOB/diethylene glycol monoethyl ether (DGME): PBS = 1:1 (v:v) and NOB/ethanol (EtOH): […]

blood glucose level [6] = assay: Hypoglycemic activity after transdermal administration to SD rats; assay type: in vivo; settings: transdermal with CAGE, 10 mg/kg
Protocol: The hypoglycemic activity of the NOB/CAGE sample was evaluated following the same protocol used for the transdermal tests in vivo using SD rats as described in Section 2.4. A 5 mg/mL solution of PBS, NOB/PBS, or NOB/CAGE was transdermally administered to the donor area of the rats (10 mg/kg) and blood was collected from the tail vein after 1, 2, 4, 8, 12, and 24 h. Blood glucose was measured using a commercial glucose meter (ACCU-CHEK® ST Meter, ACCU-CHEK® ST Strip, Roche Diagnostics K.K., Tokyo, Japan) (n = 5).

[7] = parameters: method as in PMID 27076076; settings: oral, 200 mg/kg; cited from earlier work
blood glucose level [8] = test system: blood glucose level; parameters: method as in PMID 28337858; settings: transdermal insulin delivery using CAGE; cited from earlier work
[9] = parameters: method as in PMID 30682442; settings: cited from earlier work

Molecule: O=c1c(O)c(-c2ccc(O)c(O)c2)oc2cc(O)cc(O)c12 [quercetin, reference compound]
Solubility in water [1]: 1.4 µg/mL (≈ 0.00463 mM) | BA in men [2]: 1%

Molecule: COc1ccc(-c2cc(=O)c3c(OC)c(OC)c(OC)c(OC)c3o2)cc1OC [crystalline NOB, Nobiletin]
Oral BA of crystalline NOB ([3]; oral, 2 mg/kg): 0.46%

solubility at 48 h [4]: 7200 µg/mL (≈ 17.9 mM) | Ratio of NOB in deeper fractions (epidermis + dermis + acceptor) to total NOB transferred to the skin ([5]; 1 mg/mL NOB in 50:50 (v:v) DGME: PBS): 41% | Ratio of NOB in deeper fractions (epidermis + dermis + acceptor) to total NOB transferred to the skin ([5]; 1 mg/mL NOB in 50:50 (v:v) EtOH: PBS): 54% | Ratio of NOB in deeper fractions (epidermis + dermis + acceptor) to total NOB transferred to the skin ([5]; 1 mg/mL NOB in CAGE): 77% | Ratio of NOB in deeper fractions (epidermis + dermis + acceptor) to total NOB transferred to the skin ([5]; 1 mg/mL NOB in PBS): 28% | Order of amount of NOB detected in the acceptor by solvent ([5]; 1 mg/mL NOB): CAGE > EtOH: PBS > PBS > DGME
Molecule: COc1ccc(-c2cc(=O)c3c(OC)c(OC)c(OC)c(OC)c3o2)cc1OC [NOB, Nobiletin]
Decrease in the blood glucose level over 12 h (blood glucose level [6]): at most 34% | Solubility of NOB in water ([1]; in water, ref Onoue et al.[11]): 16 µg/mL | Water solubility ([1]; ref 14 (Fig. 1: Onoue et al.[11])): 16.2 µg/mL | Oral bioavailability in rat ([3]; oral administration of NOB crystals to rats, ref 14 (Fig. 1: Onoue et al.[11])): 0.85% | Blood glucose level accompanied with insulin injection [7]: caused a drop in the BGL | Weight gain [7]: significantly suppressed weight gain

Molecule: insulin
Drop in the blood glucose level over 12 h (blood glucose level [8]): ~40%

Molecule: O=c1c(O)c(-c2ccc(O)cc2)oc2cc(O)cc(O)c12 [kaempferol, reference compound]
Solubility in water [1]: 180 µg/mL (≈ 0.629 mM) | BA [9]: 2%
